We go through 13 molecules from patent US10517870B2, “Aryl substituted bicycle heteroaryl compounds” (Bristol-Myers Squibb Company, priority 2015, dated 2019).

Read-outs that look alike come from different tables or passages of the source.

Holding throughout (type): cell-based
For one experiment, the system named is C33A (HPV−) cells. Kind of experiment: Cell proliferation/viability assay, C33A cells. The note with it: Homo sapiens, C-33-A, 96 h. The method, then: (§1) Caski (catalog number CRL-1550), SiHa (catalog number HTB-35), C33A (catalog number HTB-31), Saos-2 (ATCC HTB-85), and Hela (catalog number CCL-2) cells were obtained from the American Type Culture Collection (ATCC). The human cervical carcinoma cell lines Caski. SiHa, Hela and C33A, and the human osteosarcoma cell line Saos-2, and the human keratinocyte cell line HaCaT were cultured in Dulbecco's Modified Eagle Medium (DMEM, Invitrogen catalog number 11965-092) supplemented with 10% fetal bovine serum. The colorectal carcinoma cell line HCT-116 was cultured in Roswell Park Memorial Institute-1640 Medium (Invitrogen catalog number 11875-093) supplemented with 10% FBS. All cells were incubated at 37° C. in a humidified atmosphere with 5% CO2 in air. To establish the SCHPV-18 cell line, one million primary neonatal human foreskin keratinocytes (Invitrogen, catalog no. C-001-5C), cultured in KBM Gold-keratinocvte cell basal medium (Lonza, catalog no. 192060), were electroporated with 5 μg HPV-18 plasmid DNA (ATCC catalog no. 45152D) using the Amaxa Nucleofector II on setting T-007. Cells were co-transfected with 2 μg plasmid pZSGreen1-N1 (Clontech catalog no. 632448) encoding G418 resistance, and cells were selected for four days in 100 μg/ml G418, after which selection was removed. Cells were maintained in culture six months prior to compound testing. Integration of the HPV 18 genome was confirmed by Southern blot. Control cells transfected in parallel with pZSGreen1-N1 alone became senescent four days after selection and the culture could not be expanded. SCHPV-18 cells were maintained in E medium (Fehrmann F, Laimins L A. Human papillomavirus type 31 life cycle: methods for study using tissue culture models. Methods Mol Biol 2005; 292:317-330).
(§2) For proliferation assays, cells were plated in white polystyrene 96-well plates (Costar catalog number 3917) for CellTiter Glo viability assays or 96-well special optics plates (Costar cat #3614) for CellTiter Blue viability assays. Cells were plated in the appropriate growth medium without antibiotics. Two hours after cell plating, a 200× compound stock diluted in DMSO was added to a final concentration of 0.5%. Plates were incubated at 37° C., for 4 days and then cell viability was assessed using either CellTiter Blue (Promega catalog number G8081) or CellTiter Glo (Promega catalog number G7572) according to the manufacturer's instructions. For the CellTiter Blue viability assay, data was collected using the SpectraMax Gemini EM (Molecular Devices) with an excitation wavelength of 530 nm and emission wavelength of 590 nm. For the CellTiter Glo viability assay, data was collected using the Envision Mulitlabel Reader (Perkin Elmer catalog number 2104-0010). To calculate IC50 and EC50 values, percent inhibition curves were fit using a four-parameter logistic formula [y=A+[…]], where A and B denote minimal and maximal % inhibition, respectively, C is the IC50 value, D is the Hill slope, and x represents compound concentration.
(§3) Table C, below, sets out the results obtained employing various compounds of the invention tested for their effects on proliferation of such cells. Caski or SiHa cells, transformed by HPV 16, Hela cells, transformed by HPV 18, or HPV-negative control cell lines (Saos-2 or C33a) were treated with various compounds. […] Unlike the HPV-negative Saos-2 or C33a cell lines, the HPV-transformed cell lines rely on the presence of HPV for their continued proliferation. Therefore, a comparison of IC50 values from HPV-transformed cell lines with IC50 values obtained from HPV-negative cell lines can be used to test for compound selectivity.

In the next experiment the test system is Caski (HPV16+) cells. Nature of the experiment: Cell proliferation/viability assay, Caski cells. The note with it: Homo sapiens, Ca-Ski, 96 h, 4 days. The method, then: as §1, §2, §3
A further experiment has as its system HeLa (HPV18+) cells. Nature of the experiment: Cell proliferation/viability assay, HeLa cells. To be noted: Homo sapiens, 96 h, 4 days. The method, then: as §1, §2, §3
A further experiment relates to Saos-2 (HPV−) cells. Nature of the experiment: Cell proliferation/viability assay, Saos-2 cells. To be noted: Homo sapiens. The method, then: as §1, §2, §3
The test system of a further experiment is SiHa (HPV16+) cells. Nature of the experiment: Cell proliferation/viability assay, SiHa cells. The note with it: Homo sapiens, 96 h, 4 days. As for the experimental part: as §1, §2, §3
Another experiment concerns the target T1, PAR4 (Homo sapiens, UniProt Q96RI0).
T1 construct: expressed in transfected cells; host or cells: HEK293 PAR4 Clone 1.2A
T1 sequence (Q96RI0 18-385): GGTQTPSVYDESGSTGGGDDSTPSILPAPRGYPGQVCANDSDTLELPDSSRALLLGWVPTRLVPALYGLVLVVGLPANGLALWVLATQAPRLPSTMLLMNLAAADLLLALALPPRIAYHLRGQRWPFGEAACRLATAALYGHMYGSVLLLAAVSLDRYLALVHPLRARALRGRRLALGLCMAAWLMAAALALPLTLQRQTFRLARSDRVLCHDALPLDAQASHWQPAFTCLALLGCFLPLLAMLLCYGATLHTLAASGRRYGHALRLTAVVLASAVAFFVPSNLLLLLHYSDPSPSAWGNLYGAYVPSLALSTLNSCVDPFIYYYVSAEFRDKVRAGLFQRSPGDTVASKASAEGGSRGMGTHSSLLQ
Nature of the experiment: PAR4 FLIPR assay (calcium mobilization, antagonist activity) in PAR4-expressing HEK293 cells. From the text: The FLIPR assay is an exemplary in vitro assay for measuring the activity of the PAR4 antagonists of the present invention. In this assay, intracellular calcium mobilization is induced in PAR4 expressing cells by a PAR4 agonist and calcium mobilization is monitored.
HEK293 cells stably expressing PAR4 were generated by a standard method of transfection of human PAR4 (F2R23) cDNA expression vector and selected based on PAR4 protein expression or mRNA expression. […] These cells also express endogenous PAR1 and can elicit calcium signal upon stimulation with PAR1 agonist peptide. Therefore, the same cells were also used to determine selectivity against PAR1 and agonist activity for both receptors. Cells from HEK293 PAR4 Clone 1.2A (BMS Arctic ID 383940) were propagated and used for calcium mobilization studies.
FLIPR-based calcium mobilization assay in HEK293 cells was used to measure PAR4 antagonism, agonism, and selectivity against PAR1. The activity of the PAR4 antagonists of the present invention were tested in PAR4 expressing cells by monitoring H-Ala-Phe(4-F)-[…]NH2-induced intracellular calcium mobilization. Counter screens for agonist activity and PAR1 antagonist activity were also performed. Briefly, PAR1/PAR4-expressing HEK293 cells were grown in DMEM (Life Technology, Grand Island, N.Y.) containing 10% heat-inactivated FBS, 1% Penicillin-Streptomycin, 10 μg/mL blasticidin, and 100 μg/mL Zeocin at 37° C. with 5% CO2. Cells were plated overnight prior to the experiment in a black 384-well Purecoat Amine clear bottom plate (Becton Dickinson Biosciences, San Jose, Calif.) at 10,000 cells/well in 30 μL growth medium and incubated in a humidified chamber at 37° C. with 5% CO2 overnight. Prior to compound addition, the cell medium was replaced with 40 μL of IX calcium and magnesium-containing Hank's Balanced Saline Solution (HBSS) (with 20 mM HEPES) and 1:1000 diluted fluorescent calcium indicator (Codex Biosolutions, Gaithersburg, Md.). After a 30 minute incubation period at 37° C., and a further 30 minute incubation and equilibration period at room temperature, 20 μL test compound (diluted in 1×HBSS buffer) was added at various concentrations at 0.17% dimethyl sulfoxide (DMSO) final concentration. Changes in fluorescence intensity were measured using a Functional Drug Screening System (FDSS, Hamamatsu, Japan) to determine agonist activities. The cells were then incubated for 30 minutes at room temperature followed by addition of 20 μL of agonist peptide for antagonist activity measurement. […] Compound potency was derived from 11-point concentration-response curves.
In general terms: Calcium assays in cells follow changes in intracellular calcium, usually with a dye or a luminescent sensor.

Setting [1] is: C33A, HPV-negative, 4 days, read-out: C33A (HPV−) Proliferation IC50.
Setting [2] is: 96 h, Saos-2, HPV-negative, 4 days, read-out: Saos-2 (HPV−) Proliferation IC50.
Where [3] appears, read: read-out: C33A (HPV−) Proliferation IC50 (μM).
Setting [4] is: SAOS-2, 96 h, read-out: Saos-2 (HPV−) Proliferation IC50 (μM).

Consider `COc1cc(-c2cc(C(F)(F)F)cc3nc(OC(F)F)cnc23)cc(C(F)(F)F)c1` [Example 13, 2-(difluoromethoxy)-5-(3-methoxy-5-(trifluoromethyl)phenyl)-7-(trifluoromethyl)quinoxaline], for which the IC50 stood at 40.5 µM in the experiment on C33A (HPV−) cells (setting [1]); 15.6 µM with Caski (HPV16+) cells; 37 µM with HeLa (HPV18+) cells; 40.3 µM in the experiment on Saos-2 (HPV−) cells (setting [2]); 24 µM with SiHa (HPV16+) cells.
For `COc1ccc(-c2cc(C(F)(F)F)cc3nc(OC(F)F)cnc23)cc1F` [Example 12], in that order: more than 99.5 µM, 3.2 µM, 1.1 µM, 14.3 µM and 1.3 µM.
For `COc1cccc(-c2cc(C(F)(F)F)cc3nc(OC(F)F)cnc23)c1` [Example 10, 2-(difluoromethoxy)-5-(3-methoxyphenyl)-7-(trifluoromethyl)quinoxaline], the IC50 in the experiment with C33A (HPV−) cells (setting [1]) was more than 99.5 µM; with Caski (HPV16+) cells it was 3.9 µM; with HeLa (HPV18+) cells, 4.4 µM; with Saos-2 (HPV−) cells (setting [2]), 55 µM; in the experiment with SiHa (HPV16+) cells it was 5.1 µM.
As to `COC(=O)c1cc(-c2ccc(OC)cc2)c2ncc(OC(F)F)nc2c1` [Example 4, Methyl 3-(difluoromethoxy)-8-(4-methoxyphenyl)quinoxaline-6-carboxylate], the IC50 was 53.4 µM with C33A (HPV−) cells (setting [3]), 1 µM on PAR4, 12.6 µM in the experiment with Caski (HPV16+) cells and more than 100 µM with Saos-2 (HPV−) cells (setting [4]).
Turning to `C=Cc1cc(-c2ccc(OC)cc2)c2ncc(OC(F)F)nc2c1` [Example 3, 2-(difluoromethoxy)-5-(4-methoxyphenyl)-7-vinylquinoxaline], the IC50 with C33A (HPV−) cells (setting [3]) was more than 100 µM; on PAR4, 0.69 µM; in the experiment with Caski (HPV16+) cells, 61.9 µM; in the experiment with Saos-2 (HPV−) cells (setting [4]) it was more than 100 µM.
On to `COc1ccc2cc(-c3cc(C(F)(F)F)cc4nc(OC(F)F)cnc34)ccc2c1` [Example 11, 2-(difluoromethoxy)-5-(6-methoxynaphthalen-2-yl)-7-(trifluoromethyl)quinoxaline], for which the IC50 in the experiment with C33A (HPV−) cells (setting [1]) was more than 99.5 µM; in the experiment with Caski (HPV16+) cells it was 2.9 µM; in the experiment with HeLa (HPV18+) cells, 2.1 µM; with Saos-2 (HPV−) cells (setting [2]), 45.9 µM; in the experiment with SiHa (HPV16+) cells it was 2.7 µM.
As for `COc1ccc(-c2cc(C)cc3nc(OC(F)F)cnc23)cc1C(F)(F)F` [Example 16, 2-(difluoromethoxy)-5-(4-methoxy-3-(trifluoromethyl)phenyl)-7-methylquinoxaline], the IC50 was more than 99.5 µM in the experiment with C33A (HPV−) cells (setting [1]); 7 µM in the experiment on Caski (HPV16+) cells; 9.1 µM with HeLa (HPV18+) cells; more than 99.5 µM with Saos-2 (HPV−) cells (setting [2]); 9.4 µM in the experiment on SiHa (HPV16+) cells.
As to `COc1ccc(-c2cc(C(F)(F)F)cc3nc(OC(F)F)cnc23)cc1C(F)(F)F` [Example 9, 2-(difluoromethoxy)-5-(4-methoxy-3-(trifluoromethyl)phenyl)-7-(trifluoromethyl)quinoxaline], the IC50 worked out at 78.7 µM with C33A (HPV−) cells (setting [1]); 3.3 µM in the experiment on Caski (HPV16+) cells; 1.5 µM in the experiment on HeLa (HPV18+) cells; 76.2 µM in the experiment with Saos-2 (HPV−) cells (setting [2]); 1.7 µM with SiHa (HPV16+) cells.
For `COc1ccc(-c2cc(C(F)(F)F)cc3ncc(OC(F)F)nc23)cc1` [Example 14, 2-(difluoromethoxy)-8-(4-methoxyphenyl)-6-(trifluoromethyl)quinoxaline], in that order: 49.9 µM, 2.8 µM, 2.6 µM, 57.7 µM and 2.9 µM.
On the same counts, the results for `Cc1cc(-c2ccc(F)c(C(F)(F)F)c2)c2ncc(OC(F)F)nc2c1` [Example 17, 2-(difluoromethoxy)-5-(4-fluor-3-(trifluoromethyl)phenyl)-7-methylquinoxaline] are 58.3 µM, 17.9 µM, 23.7 µM, 96.5 µM and 17.8 µM.
On the same counts, the results for `Cc1cc(-c2cccc(C(F)(F)F)c2)c2ncc(OC(F)F)nc2c1` [Example 25, 2-(difluoromethoxy)-7-methyl-5-(3-(trifluoromethyl)phenyl)quinoxaline] are more than 100 µM, 14.5 µM, 15.2 µM, more than 100 µM and 11.7 µM.
In the case of `COc1ccc(-c2cc(Br)cc3nc(OC(F)F)cnc23)cc1` [Example 27, 7-bromo-2-(difluoromethoxy)-5-(4-methoxyphenyl)quinoxaline], the IC50 at PAR4 stood at 2.6 µM.
Turning to `COc1ccc(-c2cc3ncc(OC(F)F)nc3cc2C(F)(F)F)cc1` [Example 7, 2-(difluoromethoxy)-6-(4-methoxyphenyl)-7-(trifluoromethyl)quinoxaline], the IC50 is more than 100 µM with C33A (HPV−) cells (setting [1]); 5 µM in the experiment on Caski (HPV16+) cells; 4.4 µM with HeLa (HPV18+) cells; 92.1 µM with Saos-2 (HPV−) cells (setting [2]); 4.3 µM in the experiment with SiHa (HPV16+) cells.
